Biological target: Acetylcholinesterase (Torpedo californica, UniProt P04058)
Test: Inhibition of Torpedo californica AchE activity by Ellman's assay
Design: species or system Tetronarce californica

Chain of Acetylcholinesterase (P04058 whole entry): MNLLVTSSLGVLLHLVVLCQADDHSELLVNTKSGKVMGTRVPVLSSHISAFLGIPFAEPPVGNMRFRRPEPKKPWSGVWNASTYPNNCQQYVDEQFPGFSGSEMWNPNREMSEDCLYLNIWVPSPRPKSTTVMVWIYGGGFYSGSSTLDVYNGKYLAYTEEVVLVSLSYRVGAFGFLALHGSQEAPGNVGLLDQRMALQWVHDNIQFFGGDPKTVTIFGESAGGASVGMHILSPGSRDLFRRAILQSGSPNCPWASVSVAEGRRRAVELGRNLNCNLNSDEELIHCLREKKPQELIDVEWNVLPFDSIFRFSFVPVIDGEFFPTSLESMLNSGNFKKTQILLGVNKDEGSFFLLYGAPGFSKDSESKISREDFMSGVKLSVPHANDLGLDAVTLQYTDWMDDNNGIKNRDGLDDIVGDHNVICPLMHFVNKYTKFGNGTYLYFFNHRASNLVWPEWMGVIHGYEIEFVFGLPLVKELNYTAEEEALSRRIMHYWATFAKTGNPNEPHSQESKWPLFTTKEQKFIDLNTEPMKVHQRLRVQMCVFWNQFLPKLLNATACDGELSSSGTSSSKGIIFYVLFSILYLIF

Row | SMILES | IC50
1 | Cn1cc2c(cc1=O)-c1nc3cc(Br)ccc3c3ccnc(c13)C2=O | > 300000 nM
2 | Cn1ccc2c3nc4cc(Br)ccc4c4c3c(c(=O)c-2c1)[N+](C)(C)CC4=O [PETROSAMINE] | 91 nM
